# In publication PMC4390470 (Investigational new drugs, 2015):
# Read-outs that look alike come from different tables or passages of the source.
# Tests used:
# [1] = test system: metastatic castration-resistant prostate cancer (mCRPC); conditions: cited from earlier work
# [2] = in vivo
# [3] = in vivo; remark: listed apart in the source
# [4] = human, in vivo, 28 days
compound,measurement,setting,value
CNC(=O)c1ccc(N2C(=S)N(c3ccc(C#N)c(C(F)(F)F)c3)C(=O)C2(C)C)cc1F [enzalutamide],Median OS,"[1]; chemotherapy-naïve mCRPC, versus placebo 31.0, ref [14]",not reached
same,Median OS,"[1]; mCRPC following docetaxel therapy, versus placebo 13.6, ref [17]",18.4 months
CNC(=O)c1ccc2cc([C@@]3(O)CCn4cncc43)ccc2c1 [orteronel],Cardiovascular profile,[2],acceptable cardiovascular profile
same,"AUC0-tau and Cmax, alone versus in combination",[3],similar
same,"Mean plasma concentration-time profile, alone versus in combination",[3],similar
same,Recommended phase 2 dose (RP2D) of orteronel in combination with DP,[4],400 mg BID
CC(=O)O[C@H]1CC[C@@]2(C)C(=CC[C@@H]3[C@@H]2CC[C@]2(C)C(c4cccnc4)=CC[C@@H]32)C1 [Abiraterone acetate],Median OS,"[1]; chemotherapy-naïve mCRPC, versus placebo 27.2, ref [16]",not reached
same,Median OS,"[1]; mCRPC following docetaxel therapy, versus placebo 11.2, ref [15]",15.8 months
CC(=O)O[C@@]12CO[C@@H]1C[C@H](O)[C@@]1(C)C(=O)[C@H](O)C3=C(C)[C@@H](OC(=O)[C@H](O)[C@@H](NC(=O)OC(C)(C)C)c4ccccc4)C[C@@](O)([C@@H](OC(=O)c4ccccc4)[C@H]21)C3(C)C [docetaxel],Tmax,"human, plasma, other: orteronel oral (PO), docetaxel intravenous infusion",~1 h
same,"Mean plasma concentration-time profile, alone versus in combination","phase 2, orteronel with/without docetaxel and docetaxel with/without orteronel",similar
same,"AUC0-tau and Cmax, alone versus in combination","phase 2, orteronel with/without docetaxel and vice versa",similar
